Legend:
[1] = system: velvetleaf; test: Test B pre/postemergence velvetleaf; format: in vivo, Abutilon theophrasti
In short: (§1)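 Response is a visual 0-to-10 score relative to untreated plants, where 0 means no effect and 10 means complete control, taken twelve to sixteen days after application. Treatments went onto soil at planting and onto foliage of 1- to 4-leaf plants, using a surfactant-containing non-phytotoxic solvent.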

[2] = system: morningglory; test: Test B pre/postemergence morningglory; format: in vivo, Ipomoea hederacea
In short: as §1

[3] = system: purple nutsedge; test: Test B pre/postemergence purple nutsedge; format: in vivo, Cyperus rotundus
In short: as §1

[4] = system: rape; test: Test B pre/postemergence rape; format: in vivo, Brassica napus
In short: as §1

[5] = system: duck salad; test: Test B flood test duck salad; format: in vivo, Heteranthera limosa
In short: (§2)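 Flood test on plants grown to the 2-leaf stage; treated plants kept in greenhouse twelve to sixteen days, then visually rated against controls on a 0 (no effect) to 10 (complete control) scale.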

[6] = system: pigweed; test: Test B pre/postemergence pigweed; format: in vivo, Amaranthus retroflexus
In short: as §1

[7] = system: corn; test: Test B pre/postemergence corn; format: in vivo, Zea mays
In short: as §1

[8] = system: rice; test: Test B flood test rice; format: in vivo, Oryza sativa
In short: as §2

[9] = system: giant foxtail; test: Test B pre/postemergence giant foxtail; format: in vivo, Setaria faberii
In short: as §1

[10] = system: surinam grass; test: Test B pre/postemergence surinam grass; format: in vivo, Brachiaria decumbens
In short: as §1

[11] = system: bamyardgrass; test: Test B flood test barnyardgrass; format: in vivo, Echinochloa crus-galli
In short: as §2

[12] = system: bedstraw; test: Test B pre/postemergence bedstraw; format: in vivo, Galium aparine; settings: Postemergence
In short: as §1

[13] = system: sugar beet; test: Test B pre/postemergence sugar beet; format: in vivo, Beta vulgaris
In short: as §1

[14] = system: cocklebur; test: Test B pre/postemergence cocklebur; format: in vivo, Xanthium strumarium
In short: as §1

[15] = system: blackgrass; test: Test B pre/postemergence blackgrass; format: in vivo, Alopecurus myosuroides
In short: as §1

[16] = Postemergence, Rate 62 g/ha, scale 0 to 10, 0 is no effect, 10 is complete control
[17] = Postemergence, Rate 125 g/ha, scale of 0 to 10 where 0 is no effect and 10 is complete control
[18] = Preemergence, Rate 62 g/ha, scale of 0 to 10 where 0 is no effect and 10 is complete control
[19] = Preemergence, Rate 125 g/ha, scale of 0 to 10 where 0 is no effect and 10 is complete control
[20] = Preemergence, Rate 250 g/ha, scale 0 to 10 (0 no effect, 10 complete control)
[21] = Preemergence, Rate 500 g/ha, scale of 0 to 10 where 0 is no effect and 10 is complete control
[22] = Rate 500 g/ha, Postemergence, scale 0 to 10, 0 is no effect, 10 is complete control
[23] = Postemergence, Rate 250 g/ha, scale of 0 to 10, 0 is no effect, 10 is complete control
[24] = Rate 62 g/ha, flood test species, Pre-emergence, visual evaluation after twelve to sixteen days
[25] = Rate 125 g/ha, under heading Pre-emergence, flood test species, visual evaluation after twelve to sixteen days
[26] = Rate 250 g/ha, Pre-emergence (flood test species), scale 0 to 10, 0 is no effect, 10 is complete control
[27] = Rate 500 g/ha, Pre-emergence section of Table B, 0 to 10 scale (0 no effect, 10 complete control)

CC(C)N(C(=O)n1oc(=O)n(CC2CCCCO2)c1=O)c1ccc(Cl)cc1 (centres unmarked) [Compound 660]
Plant response rating, Velvetleaf [1, 16]: 0
Velvetleaf plant response rating [1, 17]: 2
Velvetleaf plant response rating [1, 18]: 0
Velvetleaf plant response rating [1, 19]: 0
Plant response rating, Velvetleaf [1, 20]: 0
Plant response rating, Velvetleaf [1, 21]: 0
Velvetleaf plant response rating [1, 22]: 3
Plant response rating, Morningglory [2, 16]: 1
Morningglory plant response rating [2, 17]: 4
Morningglory plant response rating [2, 23]: 6
Morningglory plant response rating [2, 18]: 0
Morningglory plant response rating [2, 19]: 0
Plant response rating, Morningglory [2, 20]: 0
Plant response rating, Morningglory [2, 21]: 0
Morningglory plant response rating [2, 22]: 7
Plant response rating, Nutsedge [3, 16]: 0
Nutsedge plant response rating [3, 17]: 0
Nutsedge plant response rating [3, 18]: 0
Nutsedge plant response rating [3, 19]: 0
Plant response rating, Nutsedge [3, 20]: 0
Plant response rating, Nutsedge [3, 21]: 0
Nutsedge plant response rating [3, 22]: 0
Plant response rating, Rape [4, 16]: 0
Rape plant response rating [4, 17]: 0
Rape plant response rating [4, 18]: 0
Rape plant response rating [4, 19]: 0
Plant response rating, Rape [4, 20]: 3
Plant response rating, Rape [4, 21]: 4
Rape plant response rating [4, 22]: 0
Plant response rating, Ducksalad (0 to 10 scale, 0 is no effect, 10 is complete control) [5, 24]: 0
Ducksalad plant response rating (0 to 10 scale, 0 is no effect, 10 is complete control) [5, 25]: 0
Ducksalad plant response rating [5, 26]: 0
Ducksalad plant response rating [5, 27]: 0
Plant response rating, Redroot pigweed [6, 16]: 2
Redroot pigweed plant response rating [6, 17]: 2
Redroot pigweed plant response rating [6, 18]: 0
Redroot pigweed plant response rating [6, 19]: 5
Plant response rating, Redroot pigweed [6, 20]: 7
Plant response rating, Redroot pigweed [6, 21]: 10
Redroot pigweed plant response rating [6, 22]: 6
Plant response rating, Corn [7, 16]: 0
Corn plant response rating [7, 17]: 0
Corn plant response rating [7, 23]: 0
Corn plant response rating [7, 18]: 0
Corn plant response rating [7, 19]: 0
Plant response rating, Corn [7, 20]: 0
Plant response rating, Corn [7, 21]: 0
Corn plant response rating [7, 22]: 2
Plant response rating, Rice (0 to 10 scale, 0 is no effect, 10 is complete control) [8, 24]: 0
Rice plant response rating (0 to 10 scale, 0 is no effect, 10 is complete control) [8, 25]: 0
Rice plant response rating [8, 26]: 0
Rice plant response rating [8, 27]: 0
Plant response rating, Giant foxtail [9, 16]: 3
Giant foxtail plant response rating [9, 17]: 4
Giant foxtail plant response rating [9, 23]: 5
Giant foxtail plant response rating [9, 18]: 8
Giant foxtail plant response rating [9, 19]: 10
Plant response rating, Giant foxtail [9, 20]: 10
Plant response rating, Giant foxtail [9, 21]: 10
Giant foxtail plant response rating [9, 22]: 8
Plant response rating, B. signalgrass [10, 16]: 0
Plant response rating, B. signalgrass [10, 17]: 0
B. signalgrass plant response rating [10, 23]: 0
B. signalgrass plant response rating [10, 18]: 0
B. signalgrass plant response rating [10, 19]: 1
Plant response rating, B. signalgrass [10, 20]: 4
Plant response rating, B. signalgrass [10, 21]: 4
B. signalgrass plant response rating [10, 22]: 5
Plant response rating, Barnyardgrass (0 to 10 scale, 0 is no effect, 10 is complete control) [11, 24]: 0
Barnyardgrass plant response rating (0 to 10 scale, 0 is no effect, 10 is complete control) [11, 25]: 0
Barnyardgrass plant response rating [11, 26]: 0
Barnyardgrass plant response rating [11, 27]: 0
Plant response rating, Bedstraw ([12]; Rate 62 g/ha, scale 0 to 10, 0 is no effect, 10 is complete control): 0
Bedstraw plant response rating ([12]; Rate 125 g/ha, scale of 0 to 10 where 0 is no effect and 10 is complete control): 0
Bedstraw plant response rating ([12]; Rate 500 g/ha, scale 0 to 10, 0 is no effect, 10 is complete control): 0
Plant response rating, Sugarbeets [13, 16]: 0
Sugarbeets plant response rating [13, 17]: 0
Sugarbeets plant response rating [13, 18]: 0
Sugarbeets plant response rating [13, 19]: 0
Plant response rating, Sugarbeets [13, 20]: 0
Plant response rating, Sugarbeets [13, 21]: 0
Sugarbeets plant response rating [13, 22]: 0
Plant response rating, Cocklebur [14, 16]: 0
Cocklebur plant response rating [14, 17]: 0
Cocklebur plant response rating [14, 23]: 2
Cocklebur plant response rating [14, 18]: 0
Cocklebur plant response rating [14, 19]: 0
Plant response rating, Cocklebur [14, 20]: 0
Plant response rating, Cocklebur [14, 21]: 0
Cocklebur plant response rating [14, 22]: 2
Plant response rating, Blackgrass [15, 16]: 0
Blackgrass plant response rating [15, 17]: 0
Blackgrass plant response rating [15, 23]: 3
Blackgrass plant response rating [15, 18]: 0
Blackgrass plant response rating [15, 19]: 4
Plant response rating, Blackgrass [15, 20]: 6
Plant response rating, Blackgrass [15, 21]: 7
Blackgrass plant response rating [15, 22]: 6
